One assay addresses T1, hM4 receptors (Homo sapiens, UniProt P08173).
T1 construct: expressed in transfected cells; host or cells: CHO cells
T1 sequence (P08173 1-479): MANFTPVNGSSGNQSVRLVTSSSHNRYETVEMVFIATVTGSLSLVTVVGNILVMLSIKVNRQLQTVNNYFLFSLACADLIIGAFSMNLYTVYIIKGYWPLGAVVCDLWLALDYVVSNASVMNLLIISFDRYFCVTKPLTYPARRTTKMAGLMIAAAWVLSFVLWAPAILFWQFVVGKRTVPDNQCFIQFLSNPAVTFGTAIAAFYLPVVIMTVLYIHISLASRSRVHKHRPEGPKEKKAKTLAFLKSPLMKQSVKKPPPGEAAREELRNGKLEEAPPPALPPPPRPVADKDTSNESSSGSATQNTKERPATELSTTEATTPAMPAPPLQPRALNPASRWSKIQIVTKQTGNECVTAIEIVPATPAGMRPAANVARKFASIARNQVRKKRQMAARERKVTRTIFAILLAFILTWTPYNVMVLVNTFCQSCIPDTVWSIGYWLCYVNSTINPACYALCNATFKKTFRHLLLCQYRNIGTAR
The assay is described as follows: Human M4 PAM PERK assay (CHO cells, TR-FRET, with EC20 acetylcholine). The class given is cell-based. The method, then: (§1) Chinese hamster ovary (CHO) cells expressing either hM4 or rM4 receptors were frozen in assay ready vials (5×10^6 cells/vial) after bulking-up in culture. The day before an assay, vial(s) were thawed and cells seeded in 384 well white proxiplates at 1000/well for hM4 cells and at 2000/well for rM4 cells, in 10 μL of growth media (Hams/F12 with glutamax and 10% FCS) and incubated overnight at 37° C./5% CO2.
(§2) On the following morning, the growth media was removed by ‘flicking out’ over a bin, patting the inverted plate onto tissue, and then replacing with 10 μL of wash media (Hams/F12 with glutamax and 8 mM HEPES, NB: serum free). Then, the wash media was removed in the same way and replaced with 8 μL/well of the serum free media. Plates were then re-incubated for a further 4 hours at 37° C./5% CO2.
(§3) Compounds for testing were solubilized to 10 mM in DMSO and compound addition plates, consisting of ten-point concentration response curves (CRC) in duplicate points (10 μM top concentration, ½ log dilution series), were prepared by acoustic dispensing and the compound management group.
(§4) After the 4-hour incubation in serum free media, a 4 μL aliquot of the 3×compound solution containing an EC20 of acetylcholine (10 nM final concentration) was added to the cell plate using a 384 well plate to plate transfer. Then, the plate lid was replaced, and the cells incubated for 5 mins at 37° C./5% CO2. Following this final incubation, all cellular processes were stopped by the addition of 4 μL/well of lysis and blocking buffer and plates were incubated for 30 minutes at RT on an orbital shaker (gentle setting). Then, a final addition of 4 μL/well of antibody detection mix, containing both the Europium-Cryptate (donor) and d2 (acceptor) tagged detection components, was added followed by a further 2-hour incubation at RT, and then the plate was read using a TR-FRET (time resolved fluorescence resonance energy transfer) based protocol.

In another assay the target is T2, rM4 receptors (Rattus norvegicus, UniProt P08485).
T2 construct: expressed in transfected cells; host or cells: CHO cells
T2 sequence (P08485 1-478): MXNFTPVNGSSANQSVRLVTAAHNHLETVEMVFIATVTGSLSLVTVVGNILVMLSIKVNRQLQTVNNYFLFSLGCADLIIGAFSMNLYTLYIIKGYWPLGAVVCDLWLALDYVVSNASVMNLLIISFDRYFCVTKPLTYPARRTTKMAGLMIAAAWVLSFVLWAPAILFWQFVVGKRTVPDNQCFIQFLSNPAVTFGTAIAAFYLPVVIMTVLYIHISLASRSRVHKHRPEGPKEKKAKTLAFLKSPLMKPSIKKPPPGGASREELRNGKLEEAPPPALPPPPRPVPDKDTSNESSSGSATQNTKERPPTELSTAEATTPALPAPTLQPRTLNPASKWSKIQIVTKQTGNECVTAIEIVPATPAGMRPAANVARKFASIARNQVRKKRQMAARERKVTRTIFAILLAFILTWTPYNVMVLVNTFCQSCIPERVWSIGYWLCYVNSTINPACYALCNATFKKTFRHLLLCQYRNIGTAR
Put plainly: Rat M4 PAM PERK assay (CHO cells, TR-FRET, with EC20 acetylcholine). The class given is cell-based. The method, then: as §1, §2, §3, §4

Another assay concerns the target T3, human M4 receptor (Homo sapiens, UniProt P08173).
T3 construct: expressed in transfected cells; host or cells: CHO-K1 cells (membranes)
T3 sequence (P08173 1-479): T1 sequence (P08173 1-479)
Put plainly: M4 GTPγS PAM assay (CHO-K1 membranes, 35S-GTP binding, with EC20 acetylcholine). The settings on record: with EC20 acetylcholine (40 nM). The class given is biochemical. The method, then: The M4 GTPγS PAM method was used. Membranes were prepared for GTPgS binding assays from CHO-K1 cells stably expressing human M4 receptor. Briefly, cells were grown in 5-layer cell culture flasks. Cells were washed with 50 mL of PBS and then dissociated with 0.05% trypsin. Dissociated cells were then collected by centrifugation at 650×g for 8 minutes at 4° C. Pellets were washed again in PBS by centrifugation and resuspended in 30 mL of 20 mM HEPES, 10 mM EDTA, pH 7.4. After sitting on ice for 30 min, membranes were collected by centrifugation at 50000×g for 15′ at 4° C., resuspended in 30 mL of 20 mM HEPES, 0.1 mM EDTA, pH 7.4 and collected again by centrifugation. Pellets were then washed twice by centrifugation in 30 mL of 20 mM HEPES, pH 7.4, and stored at −80° C. until the day of the assay. On the day of the assay, pellets were thawed on ice and resuspended in 1 mL of 20 mM HEPES, pH 7.4, 10 mM MgCl2, 100 mM NaCl using dounce homogenization. Membrane protein concentration is determined by BCA protein assay (Promega, Madison, WI) according to Promega guidelines.
On the day of the assay, serial dilutions of test PAM compounds were brought up in assay buffer (20 mM HEPES, 10 mM MgCl2, 100 mM NaCl) at 4X final assay concentration. […] of membrane homogenates (containing […] of membrane protein) were prepared in assay buffer supplemented with GDP at […] final assay concentration (final assay concentration of GDP is 5 μM for M2 and 0.1 μM for M4) and dispensed into 96 well polypropylene, U-bottom Greiner plates. 25 ml of vehicle or test PAM compound at 4× of final assay concentration diluted in the assay buffer were added to membrane and plates are incubated for 10-15 minutes at room temperature with gentle shaking. Then, […] of EC20 acetylcholine in assay buffer at 4× final assay concentration was added to assay plates (EC20 final assay concentrations was 40 nM for human M4).
Plates were then incubated, with shaking, for an additional 10-15 minutes. […] of 0.4 nM 35S-GTP (Perkin Elmer, Waltham, MA) in assay buffer was added to assay mixtures. The binding reaction is left on the shaker for 1 hour at room temperature. Membranes in assay reactions were then transferred to GF/C filter plates (Unifilter, Perkin Elmer) and washed three times using a FilterMate Harvester (Perkin Elmer) with cold assay buffer containing no GDP. Filter plates were then dried at 40° C. overnight followed by the addition of […] of Beta Plate Scintillation liquid. Plates are top and bottom sealed before being read on TopCount scintillation counter (Perkin Elmer, Waltham, MA).

For `Cc1c2c(n(C)c(=O)c1C)CN(C(=O)CC1CN(c3ccc(C4CC4)c(F)c3)C1C)C2` (single isomer, unassigned) [Compound I-61], the EC50 on hM4 receptors, at rM4 receptors and on human M4 receptor was < 50 nM in each case.

As for `Cc1c2c(n(C)c(=O)c1C)CN(C(=O)CC1CN(c3ccc(C4CC4)c(F)c3)C1C)C2` (single isomer, unassigned) [Compound I-62], the EC50 at hM4 receptors, at rM4 receptors and at human M4 receptor was 200 to 1000 nM throughout.

Turning to `Cc1c2c(n(C)c(=O)c1Cl)CN(C(=O)C(C)C1CN(c3ccnc(C(F)(F)F)c3)C1)C2` (single isomer, unassigned) [Compound I-82, 3-Chloro-1,4-dimethyl-6-(2-(1-(2-(trifluoromethyl)pyridin-4-yl)azetidin-3-yl)propanoyl)-1,5,6,7-tetrahydro-2H-pyrrolo[3,4-b]pyridin-2-one], the EC50 on hM4 receptors, on rM4 receptors and on human M4 receptor was > 1000 nM each time.

With `Cc1cc(=O)n(C)c2c1CN(C(=O)CC1CN(c3cccnc3)C1)C2` [Compound I-3], the EC50 is 50 to 200 nM at hM4 receptors, 200 to 1000 nM at rM4 receptors and < 50 nM at human M4 receptor.

Consider `COc1cccc(N2CC(CC(=O)N3Cc4c(C)cc(=O)n(C)c4C3)C2)c1` [Compound I-7], for which the EC50 at hM4 receptors was in the range of 200 to 1000 nM; at rM4 receptors, 50 to 200 nM; on human M4 receptor, 200 to 1000 nM.

`Cc1cc(=O)n(C)c2c1CN(C(=O)CC1CN(c3ccc(C(F)(F)F)cn3)C1)C2` [Compound I-8]: the EC50 at hM4 receptors is 200 to 1000 nM; at rM4 receptors, > 1000 nM; on human M4 receptor, > 1000 nM.

In the case of `Cc1cc(=O)n(C)c2c1CN(C(=O)CC1CN(c3ccnc(OCC4CC4)c3)C1)C2` [Compound I-10], the EC50 at hM4 receptors was < 50 nM; at rM4 receptors, 200 to 1000 nM; at human M4 receptor it was 50 to 200 nM.

Turning to `Cc1cc(=O)n(C)c2c1CN(C(=O)CC1CN(c3ccc(F)cc3)C1)C2` [Compound I-11], the EC50 on hM4 receptors, at rM4 receptors and at human M4 receptor was 200 to 1000 nM each time.

As to `Cc1cc(=O)n(C)c2c1CN(C(=O)CC1CN(c3ccc(OC(F)(F)F)cc3)C1)C2` [Compound I-12], the EC50 lay within 200 to 1000 nM on hM4 receptors, 200 to 1000 nM at rM4 receptors and 50 to 200 nM on human M4 receptor.

In the case of `Cc1cc(=O)n(C)c2c1CN(C(=O)CC1CN(c3cccc(C(F)(F)F)c3)C1)C2` [Compound I-13], the values for the EC50 on hM4 receptors, on rM4 receptors and on human M4 receptor were 200 to 1000 nM, 200 to 1000 nM and 50 to 200 nM, respectively.

`Cc1cc(=O)n(C)c2c1CN(C(=O)CC1CN(c3ccc4c(c3)COC4)C1)C2` [Compound I-16]: the concentration for a half-maximal effect (EC50) at hM4 receptors lay within 50 to 200 nM; on rM4 receptors it was 200 to 1000 nM; at human M4 receptor, 200 to 1000 nM.

For the compound `Cc1cc(=O)n(C)c2c1CN(C(=O)CC1CN(c3ccc(C#N)cc3)C1)C2` [Compound I-17], the EC50 on hM4 receptors is < 50 nM; at rM4 receptors, 50 to 200 nM; at human M4 receptor, 50 to 200 nM.

Regarding `Cc1cc(=O)n(C)c2c1CN(C(=O)CC1CN(c3ncns3)C1)C2` [Compound I-18], the figures for the EC50 on hM4 receptors, on rM4 receptors and on human M4 receptor were 200 to 1000 nM, > 1000 nM and 200 to 1000 nM, respectively.

As for `Cc1cc(=O)n(C)c2c1CN(C(=O)CC1CN(c3ccc(C4CC4)cc3)C1)C2` [Compound I-19], the values for the EC50 on hM4 receptors, on rM4 receptors and at human M4 receptor were 200 to 1000 nM, 50 to 200 nM and 50 to 200 nM, respectively.

In the case of `Cc1cc(=O)n(C)c2c1CN(C(=O)CC1CN(c3ccc(F)c(C(F)(F)F)c3)C1)C2` [Compound I-20], the EC50 was 50 to 200 nM at hM4 receptors, 50 to 200 nM on rM4 receptors and 200 to 1000 nM on human M4 receptor.

Regarding `Cc1cc(=O)n(C)c2c1CN(C(=O)CC1CN(c3cnc(C(F)(F)F)nc3)C1)C2` [Compound I-21], the EC50 was 200 to 1000 nM on hM4 receptors, 50 to 200 nM on rM4 receptors and > 1000 nM at human M4 receptor.

With `Cc1cc(=O)n(C)c2c1CN(C(=O)CC1CN(c3ccnc(C4CC4)c3)C1)C2` [Compound I-22], the EC50 was 50 to 200 nM on hM4 receptors, 200 to 1000 nM on rM4 receptors and 200 to 1000 nM at human M4 receptor.

With `Cc1cc(=O)n(C)c2c1CN(C(=O)CC1CN(c3ccnc(C(F)(F)F)n3)C1)C2` [Compound I-23], the EC50 on hM4 receptors, at rM4 receptors and at human M4 receptor was 200 to 1000 nM each time.

As for `Cc1cc(=O)n(C)c2c1CN(C(=O)CC1CN(c3ccnc(C4CC4)n3)C1)C2` [Compound I-24], the results for the EC50 at hM4 receptors, on rM4 receptors and on human M4 receptor were 50 to 200 nM, 200 to 1000 nM and 50 to 200 nM, respectively.

Regarding `Cc1cc(=O)n(C)c2c1CN(C(=O)CC1CN(c3cccc(C#N)c3)C1)C2` [Compound I-25], the EC50 on hM4 receptors is 50 to 200 nM; on rM4 receptors, 200 to 1000 nM; at human M4 receptor it was 200 to 1000 nM.

Take `Cc1cc(=O)n(C)c2c1CN(C(=O)CC1CN(c3cnc(C(F)(F)F)cn3)C1)C2` [Compound I-26]: the EC50 on hM4 receptors is 200 to 1000 nM; on rM4 receptors, 50 to 200 nM; at human M4 receptor, > 1000 nM.

For the compound `Cc1cc(=O)n(C)c2c1CN(C(=O)C(C)(C)C1CN(c3ccnc(C(F)(F)F)c3)C1)C2` [Compound I-41, 1,4-Dimethyl-6-(2-methyl-2-(1-(2-(trifluoromethyl)pyridin-4-yl)azetidin-3-yl)propanoyl)-1,5,6,7-tetrahydro-2H-pyrrolo[3,4-b]pyridin-2-one], the EC50 on hM4 receptors and on human M4 receptor was > 1000 nM in each case.
